Results taken from US20260001928A1 (CORTERIA PHARMACEUTICALS, priority 2022, published 2026).
*1 amine or outer side, *2 acyl side, *3 side chain or, on linkers, in order; H or OH if unused. Where a SMILES comes first, the peptide text is derived from it. Side-chain parts run from the residue outwards. [ ]: non-standard residue; d: D form. The star is where a group is joined. C18 diacid = O=C(O)CCCCCCCCCCCCCCCCC(=O)*; C16 diacid = O=C(O)CCCCCCCCCCCCCCC(=O)*; γGlu = O=C(O)[C@H](CCC(=O)[*:2])N[*:1]; C14 diacid = O=C(O)CCCCCCCCCCCCC(=O)*; NMeI = CC[C@H](C)[C@H](NC)C(=O)O; Isovaleryl = CC(C)CC(=O)*; Api = NC1(C(=O)O)CCNCC1; AEEA = NCCOCCOCC(=O)O; Aib = CC(C)(N)C(=O)O

Experiments:
human CRF2a receptor = biological target: T1, human CRF2a receptor (Homo sapiens, UniProt Q13324); assay: Activity at human CRF2a receptor, cAMP functional assay in TeloHEAC cells; type: cell-based; conditions: TeloHEAC cells stably expressing human CRF2a receptor, relative to urocortin 2 (100 nM = 100%)
T1 construct: expressed in transfected cells; host or cells: TeloHEAC cells
T1 sequence (Q13324 1-411): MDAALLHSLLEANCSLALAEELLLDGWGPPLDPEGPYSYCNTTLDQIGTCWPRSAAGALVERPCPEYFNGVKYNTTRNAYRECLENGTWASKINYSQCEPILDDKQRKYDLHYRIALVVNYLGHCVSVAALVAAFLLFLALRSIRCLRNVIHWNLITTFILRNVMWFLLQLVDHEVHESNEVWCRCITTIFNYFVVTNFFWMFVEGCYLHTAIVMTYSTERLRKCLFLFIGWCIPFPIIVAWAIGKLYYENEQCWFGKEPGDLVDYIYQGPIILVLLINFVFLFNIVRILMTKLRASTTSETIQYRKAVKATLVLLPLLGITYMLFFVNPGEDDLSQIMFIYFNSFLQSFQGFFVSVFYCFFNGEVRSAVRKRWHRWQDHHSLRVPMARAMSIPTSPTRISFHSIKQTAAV
Procedure: Agonism of compounds for human corticotropin-releasing factor 2a (CRF2a receptor) was determined by a functional assay measuring cAMP modulation upon treatment of TeloHEAC cells stably expressing human CRF2a receptor. Compounds were dissolved at 0.5 mM in 100% DMSO and serially diluted (1:2) in 100% DMSO for 16 dilutions. 20 nL of each dilution was then transferred to 384-well assay plate using an acoustic droplet ejection instrument. 5 μL of compound buffer (1×HBSS; 20 mM HEPES,) were then added to each well. Prior to use, frozen cells were thawed quickly at 37° C. and washed (5 min at 900 rpm) with 20 mL cell buffer (1×HBSS; 20 mM HEPES). Cells were resuspended in cell buffer added with 2 mM IBMX and adjusted to a cell density of […]. 5 μL cells (final dell density: 10000 cells/well) were dispensed in the compound-containing 384-well assay plate and incubated for 30 minutes 37° C. The cAMP level in treated cells was determined using the Cisbio 62AM4PEC kit according to manufacturer's instruction. Finally, plates were incubated for 1 h at room temperature before measuring the fluorescence ratio between 665/620 nm. The percent activity value (E %) was calculated by setting 100 nM of urocortin 2 (UCN2) as 100%. The in vitro potency of the compounds was quantified by determining the concentrations that caused 50% activation of maximal response (EC50) relative to urocortin 2.

CFR1R receptor = biological target: T2, CFR1R receptor (Homo sapiens, UniProt P34998); assay: Activity at anti-target CFR1R receptor, cAMP assay in CRF1R-overexpression CHO-K1 cells; type: cell-based; conditions: 100% = Sauvagine at 100 nM; for EC50: cAMP
T2 construct: host or cells: CHO-K1 (clone 2)
T2 sequence (P34998 24-415): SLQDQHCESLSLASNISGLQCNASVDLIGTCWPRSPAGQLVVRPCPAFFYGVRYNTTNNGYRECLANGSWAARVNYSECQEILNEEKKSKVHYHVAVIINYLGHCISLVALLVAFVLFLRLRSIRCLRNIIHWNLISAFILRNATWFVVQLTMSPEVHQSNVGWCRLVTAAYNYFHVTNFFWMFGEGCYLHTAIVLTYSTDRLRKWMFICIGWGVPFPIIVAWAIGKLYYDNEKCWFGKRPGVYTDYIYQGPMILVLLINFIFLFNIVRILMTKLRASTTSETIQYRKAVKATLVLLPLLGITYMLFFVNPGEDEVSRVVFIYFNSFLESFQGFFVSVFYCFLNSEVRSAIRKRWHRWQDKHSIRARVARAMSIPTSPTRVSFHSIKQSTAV
Method in brief: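 Grow clone 2 to near confluence at 37° C. under 5% CO2 in F12 (Hams) with 10% FBS and G418, harvest, and freeze in 10% DMSO. Thaw and plate at 4000 cells/well. Then proceed per the TeloHAEC method, normalising to Sauvagine 100 nM as maximum.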

SMILES	EC50 (human CRF2a receptor)	Emax (% I) (CFR1R receptor)	EC50 (CFR1R receptor)
CC[C@H](C)[C@H](NC)C(=O)N[C@H](C(=O)N[C@@H](CC(C)C)C(=O)N[C@@H](CO)C(=O)N[C@@H](CC(C)C)C(=O)N[C@@H](CC(=O)O)C(=O)N[C@@H](C(=O)N1CCC[C@H]1C(=O)N[C@H](C(=O)N[C@@H](CCCCN)C(=O)N[C@@H](CC(C)C)C(=O)N[C@@H](CCCCNC(=O)CC[C@H](NC(=O)CCCCCCCCCCCCCCC(=O)O)C(=O)O)C(=O)N[C@@H](CCCCN)C(=O)N[C@H](C(=O)N[C@@H](CC(C)C)C(=O)N[C@@H](CC(C)C)C(=O)N[C@@H](CCC(=O)O)C(=O)N[C@@H](CCC(N)=O)C(=O)N[C@@H](CCC(=O)O)C(=O)N[C@@H](CCCCN)C(=O)N[C@@H](CCC(N)=O)C(=O)N[C@@H](CCCCN)C(=O)N[C@@H](C)C(=O)N[C@@H](CCC(N)=O)C(=O)N[C@@H](CCCNC(=N)N)C(=O)N[C@@H](CCC(=O)O)C(=O)N[C@@H](CCC(N)=O)C(=O)N[C@@H](C)C(=O)N[C@@H](CCC(=O)O)C(=O)N[C@H](C(=O)N[C@@H](CC(N)=O)C(=O)NC(C)(C)C(=O)N[C@@H](CCC(N)=O)C(=O)N[C@H](C(=O)N[C@@H](CC(C)C)C(=O)N[C@@H](C)C(=O)N[C@@H](CCC(N)=O)C(=O)N[C@H](C(N)=O)C(C)C)[C@@H](C)CC)[C@@H](C)O)[C@@H](C)CC)[C@@H](C)CC)C(C)C)C(C)C [compound 74] (H-[NMeI]VLSLD[dV]PIKLK([γGlu-C16 diacid])KILLEQEKQKAQREQAETN[Aib]QILAQV-NH2)	0.15 nM	7 % I	> 250 nM
CC[C@H](C)[C@H](NC(C)=O)C(=O)N[C@H](C(=O)N[C@@H](CC(C)C)C(=O)N[C@@H](CO)C(=O)N[C@@H](CC(C)C)C(=O)N[C@@H](CC(=O)O)C(=O)N[C@@H](C(=O)N1CCC[C@H]1C(=O)N[C@H](C(=O)N[C@@H](CCCCN)C(=O)N[C@@H](CC(C)C)C(=O)N[C@@H](CCCCNC(=O)CC[C@H](NC(=O)CCCCCCCCCCCCC(=O)O)C(=O)O)C(=O)N[C@@H](CCCCN)C(=O)N[C@H](C(=O)N[C@@H](CC(C)C)C(=O)N[C@@H](CC(C)C)C(=O)N[C@@H](CCC(=O)O)C(=O)N[C@@H](CCC(N)=O)C(=O)N[C@@H](CCC(=O)O)C(=O)N[C@@H](CCCCN)C(=O)N[C@@H](CCC(N)=O)C(=O)N[C@@H](CCCCN)C(=O)NC(C)(C)C(=O)N[C@@H](CCC(N)=O)C(=O)N[C@@H](CCCNC(=N)N)C(=O)N[C@@H](CCC(=O)O)C(=O)N[C@@H](CCC(N)=O)C(=O)N[C@@H](C)C(=O)N[C@@H](CCC(=O)O)C(=O)N[C@H](C(=O)N[C@@H](CC(N)=O)C(=O)NC1(C(=O)N[C@@H](CCC(N)=O)C(=O)N[C@H](C(=O)N[C@@H](CC(C)C)C(=O)N[C@@H](C)C(=O)N[C@@H](CCC(N)=O)C(=O)N[C@H](C(N)=O)C(C)C)[C@@H](C)CC)CCNCC1)[C@@H](C)O)[C@@H](C)CC)[C@@H](C)CC)C(C)C)C(C)C [compound 170] (Ac-IVLSLD[dV]PIKLK([γGlu-C14 diacid])KILLEQEKQK[Aib]QREQAETN[Api]QILAQV-NH2)	1.28 nM	5 % I	> 250 nM
CC[C@H](C)[C@H](NC)C(=O)N[C@H](C(=O)N[C@@H](CC(C)C)C(=O)N[C@@H](CO)C(=O)N[C@@H](CC(C)C)C(=O)N[C@@H](CC(=O)O)C(=O)N[C@@H](C(=O)N1CCC[C@H]1C(=O)N[C@H](C(=O)N[C@@H](CCCCN)C(=O)N[C@@H](CC(C)C)C(=O)N[C@@H](CCCCNC(=O)COCCOCCNC(=O)COCCOCCNC(=O)CC[C@H](NC(=O)CC[C@H](NC(=O)CCCCCCCCCCCCC(=O)O)C(=O)O)C(=O)O)C(=O)N[C@@H](CCCCN)C(=O)N[C@H](C(=O)N[C@@H](CC(C)C)C(=O)N[C@@H](CC(C)C)C(=O)N[C@@H](CCC(=O)O)C(=O)N[C@@H](CCC(N)=O)C(=O)N[C@@H](CCC(=O)O)C(=O)N[C@@H](CCCCN)C(=O)N[C@@H](CCC(N)=O)C(=O)N[C@@H](CCCCN)C(=O)N[C@@H](CCCCN)C(=O)N[C@@H](CCC(N)=O)C(=O)N[C@@H](CCCNC(=N)N)C(=O)N[C@@H](CCC(=O)O)C(=O)N[C@@H](CCC(N)=O)C(=O)N[C@@H](C)C(=O)N[C@@H](CCC(=O)O)C(=O)N[C@H](C(=O)N[C@@H](CC(N)=O)C(=O)NC(C)(C)C(=O)N[C@@H](CCC(N)=O)C(=O)N[C@H](C(=O)N[C@@H](CC(C)C)C(=O)N[C@@H](C)C(=O)N[C@@H](CCC(N)=O)C(=O)N[C@H](C(N)=O)C(C)C)[C@@H](C)CC)[C@@H](C)O)[C@@H](C)CC)[C@@H](C)CC)C(C)C)C(C)C [compound 179] (H-[NMeI]VLSLD[dV]PIKLK([AEEA-AEEA-γGlu-γGlu-C14 diacid])KILLEQEKQKKQREQAETN[Aib]QILAQV-NH2)	15.5 nM	−4 % I	> 250 nM
CC[C@H](C)[C@H](NC)C(=O)N[C@H](C(=O)N[C@@H](CC(C)C)C(=O)N[C@@H](CO)C(=O)N[C@@H](CC(C)C)C(=O)N[C@@H](CC(=O)O)C(=O)N[C@@H](C(=O)N1CCC[C@H]1C(=O)N[C@H](C(=O)N[C@@H](CCCCN)C(=O)N[C@@H](CC(C)C)C(=O)N[C@@H](CCCCNC(=O)COCCOCCNC(=O)COCCOCCNC(=O)CC[C@H](NC(=O)CCCCCCCCCCCCCCCCC(=O)O)C(=O)O)C(=O)N[C@@H](CCCCN)C(=O)N[C@H](C(=O)N[C@@H](CC(C)C)C(=O)N[C@@H](CC(C)C)C(=O)N[C@@H](CCC(=O)O)C(=O)N[C@@H](CCC(N)=O)C(=O)N[C@@H](CCC(=O)O)C(=O)N[C@@H](CCCCN)C(=O)N[C@@H](CCC(N)=O)C(=O)N[C@@H](CCCCN)C(=O)NC(C)(C)C(=O)N[C@@H](CCC(N)=O)C(=O)N[C@@H](CCCNC(=N)N)C(=O)N[C@@H](CCC(=O)O)C(=O)N[C@@H](CCC(N)=O)C(=O)N[C@@H](C)C(=O)N[C@@H](CCC(=O)O)C(=O)N[C@H](C(=O)N[C@@H](CC(N)=O)C(=O)NC(C)(C)C(=O)N[C@@H](CCC(N)=O)C(=O)N[C@H](C(=O)N[C@@H](CC(C)C)C(=O)N[C@@H](C)C(=O)N[C@@H](CCC(N)=O)C(=O)N[C@H](C(N)=O)C(C)C)[C@@H](C)CC)[C@@H](C)O)[C@@H](C)CC)[C@@H](C)CC)C(C)C)C(C)C [compound 200] (H-[NMeI]VLSLD[dV]PIKLK([AEEA-AEEA-γGlu-C18 diacid])KILLEQEKQK[Aib]QREQAETN[Aib]QILAQV-NH2)	0.71 nM	2 % I	> 250 nM
CC[C@H](C)[C@H](NC(=O)[C@H](CCC(N)=O)NC(=O)[C@H](CCCCNC(=O)CC[C@H](NC(=O)CCCCCCCCCCCCCCC(=O)O)C(=O)O)NC(=O)[C@H](CC(C)C)NC(=O)[C@H](CCCCN)NC(=O)[C@@H](NC(=O)[C@@H]1CCCN1C(=O)[C@H](NC(=O)[C@H](CC(=O)O)NC(=O)[C@H](CC(C)C)NC(=O)[C@H](CO)NC(=O)[C@H](CC(C)C)NC(=O)[C@@H](NC(=O)CC(C)C)C(C)C)C(C)C)[C@@H](C)CC)C(=O)N[C@@H](CC(C)C)C(=O)N[C@@H](CC(C)C)C(=O)N[C@@H](CCCCN)C(=O)N[C@@H](CCC(N)=O)C(=O)N[C@@H](CCC(=O)O)C(=O)N[C@@H](CCCNC(=N)N)C(=O)N[C@@H](CCC(N)=O)C(=O)N[C@@H](CCCCN)C(=O)N[C@@H](CCCCN)C(=O)N[C@@H](CCC(N)=O)C(=O)N[C@@H](CCCNC(=N)N)C(=O)N[C@@H](CCC(=O)O)C(=O)N[C@@H](CCC(N)=O)C(=O)N[C@@H](C)C(=O)N[C@@H](CCC(=O)O)C(=O)N[C@@H](CCCCN)C(=O)N[C@@H](CC(N)=O)C(=O)N[C@@H](CCCCN)C(=O)N[C@@H](CCC(N)=O)C(=O)N[C@H](C(=O)N[C@@H](CC(C)C)C(=O)N[C@@H](CCC(=O)O)C(=O)N[C@@H](CCC(N)=O)C(=O)N[C@H](C(N)=O)C(C)C)[C@@H](C)CC [compound 9] (Isovaleryl-VLSLD[dV]PIKLK([γGlu-C16 diacid])QILLKQERQKKQREQAEKNKQILEQV-NH2)	0.16 nM	77 % I	
